Experimental data published in ChEMBL document CHEMBL1201862, “PubChem BioAssay data set” (2004).
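How tested: cells in 96-well plates exposed to compound for 48 hours at five concentrations. Here, GI50 denotes the concentration required for 50% inhibition of growth.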 Active and inactive are the calls of the source. Rule as the data show it: active = GI50 up to about 1.1 µM and inactive = higher.

Legend:
Test in all cases: growth of human tumour cells (NCI), 48 h
K562 = test system: K562
A549 = test system: A549
RPMI-8226 = test system: RPMI-8226
SK-MEL-2 = test system: SK-MEL-2
HOP-62 = test system: HOP-62
SK-MEL-28 = test system: SK-MEL-28
OVCAR-5 = test system: OVCAR-5
OVCAR-8 = test system: OVCAR-8
RXF 393 = test system: RXF 393
SN12C = test system: SN12C
M14 = test system: M14
SW-620 = test system: SW-620
T47D = test system: T47D
MOLT-4 = test system: MOLT-4
HCT-116 = test system: HCT-116
CAKI-1 = test system: CAKI-1
COLO 205 = test system: COLO 205
OVCAR-4 = test system: OVCAR-4
UACC-257 = test system: UACC-257
NCI-H226 = test system: NCI-H226
HOP-92 = test system: HOP-92
MDA-MB-231 = test system: MDA-MB-231
IGROV-1 = test system: IGROV-1
NCI-H460 = test system: NCI-H460
DU-145 = test system: DU-145
MCF7 = test system: MCF7
SF-295 = test system: SF-295
KM12 = test system: KM12
LOX IMVI = test system: LOX IMVI
Hs-578T = test system: Hs-578T
NCI-H522 = test system: NCI-H522
NCI-H23 = test system: NCI-H23
SNB-75 = test system: SNB-75
CCRF-CEM = test system: CCRF-CEM
SK-MEL-5 = test system: SK-MEL-5
786-0 = test system: 786-0
SF-268 = test system: SF-268
MDA-MB-435 = test system: MDA-MB-435
Malme-3M = test system: Malme-3M
SF-539 = test system: SF-539
U-251 = test system: U-251
HT-29 = test system: HT-29
NCI/ADR-RES = test system: NCI/ADR-RES
OVCAR-3 = test system: OVCAR-3
SNB-19 = test system: SNB-19
A498 = test system: A498
SK-OV-3 = test system: SK-OV-3
EKVX = test system: EKVX
TK-10 = test system: TK-10
PC-3 = test system: PC-3
ACHN = test system: ACHN
HCT-15 = test system: HCT-15
SR = test system: SR
UO-31 = test system: UO-31
HL-60 = test system: HL-60
MDA-N = test system: MDA-N
UACC-62 = test system: UACC-62
HCC 2998 = test system: HCC 2998
BT-549 = test system: BT-549

COc1ccc(C(Cc2ccccc2)C2NC(=S)NC2=O)cc1 (stereo unspecified)
GI50 (K562): > 25 µM (inactive)
GI50 (A549): > 25 µM (inactive)
GI50 (RPMI-8226): > 25 µM (inactive)
GI50 (SK-MEL-2): > 25 µM (inactive)
GI50 (HOP-62): > 25 µM (inactive)
GI50 (SK-MEL-28): > 25 µM (inactive)
GI50 (OVCAR-5): > 25 µM (inactive)
GI50 (OVCAR-8): > 25 µM (inactive)
GI50 (RXF 393): > 25 µM (inactive)
GI50 (SN12C): > 25 µM (inactive)
GI50 (M14): > 25 µM (inactive)
GI50 (SW-620): > 25 µM (inactive)
GI50 (T47D): > 25 µM (inactive)
GI50 (MOLT-4): > 25 µM (inactive)
GI50 (HCT-116): > 25 µM (inactive)
GI50 (CAKI-1): > 25 µM (inactive)
GI50 (COLO 205): > 25 µM (inactive)
GI50 (OVCAR-4): > 25 µM (inactive)
GI50 (UACC-257): > 25 µM (inactive)
GI50 (NCI-H226): > 25 µM (inactive)
GI50 (HOP-92): > 25 µM (inactive)
GI50 (MDA-MB-231): > 25 µM (inactive)
GI50 (IGROV-1): > 25 µM (inactive)
GI50 (NCI-H460): > 25 µM (inactive)
GI50 (DU-145): > 25 µM (inactive)
GI50 (MCF7): > 25 µM (inactive)
GI50 (SF-295): > 25 µM (inactive)
GI50 (KM12): > 25 µM (inactive)
GI50 (LOX IMVI): > 25 µM (inactive)
GI50 (Hs-578T): > 25 µM (inactive)
GI50 (NCI-H522): > 25 µM (inactive)
GI50 (NCI-H23): > 25 µM (inactive)
GI50 (SNB-75): > 25 µM (inactive)
GI50 (CCRF-CEM): > 25 µM (inactive)
GI50 (SK-MEL-5): > 25 µM (inactive)
GI50 (786-0): > 25 µM (inactive)
GI50 (SF-268): > 25 µM (inactive)
GI50 (MDA-MB-435): > 25 µM (inactive)
GI50 (Malme-3M): > 25 µM (inactive)
GI50 (SF-539): > 25 µM (inactive)
GI50 (U-251): > 25 µM (inactive)
GI50 (HT-29): > 25 µM (inactive)
GI50 (NCI/ADR-RES): > 25 µM (inactive)
GI50 (OVCAR-3): > 25 µM (inactive)
GI50 (SNB-19): > 25 µM (inactive)
GI50 (A498): > 25 µM (inactive)
GI50 (SK-OV-3): > 25 µM (inactive)
GI50 (EKVX): > 25 µM (inactive)
GI50 (TK-10): > 25 µM (inactive)
GI50 (PC-3): > 25 µM (inactive)
GI50 (ACHN): > 25 µM (inactive)
GI50 (HCT-15): > 25 µM
GI50 (SR): 9.27 µM (inactive)
GI50 (UO-31): > 25 µM (inactive)
GI50 (HL-60): > 25 µM (inactive)

COc1ccc(Oc2cccc(C3C4C(=O)N(c5ccc(C)c(Cl)c5)C(=O)C4ON3C(C(N)=O)c3ccccc3)c2)cc1 (stereo unspecified)
GI50 (K562): 16.6 µM (inactive)
GI50 (A549): 20.9 µM (inactive)
GI50 (SK-MEL-2): 11.2 µM (inactive)
GI50 (HOP-62): 35.2 µM (inactive)
GI50 (MDA-N): 10.4 µM (inactive)
GI50 (SK-MEL-28): 41.5 µM (inactive)
GI50 (OVCAR-5): 17.7 µM (inactive)
GI50 (OVCAR-8): 17.5 µM (inactive)
GI50 (RXF 393): 7.6 µM (inactive)
GI50 (SN12C): 12.4 µM (inactive)
GI50 (M14): 13.1 µM (inactive)
GI50 (SW-620): 20.9 µM (inactive)
GI50 (T47D): 9.23 µM (inactive)
GI50 (MOLT-4): 11.8 µM (inactive)
GI50 (HCT-116): 14 µM (inactive)
GI50 (CAKI-1): 21 µM (inactive)
GI50 (COLO 205): 15.1 µM (inactive)
GI50 (OVCAR-4): 18.9 µM (inactive)
GI50 (UACC-257): 10.7 µM (inactive)
GI50 (NCI-H226): 15.6 µM (inactive)
GI50 (HOP-92): 24 µM (inactive)
GI50 (MDA-MB-231): 34 µM (inactive)
GI50 (IGROV-1): 18.8 µM (inactive)
GI50 (NCI-H460): 14.8 µM (inactive)
GI50 (DU-145): 9.59 µM (inactive)
GI50 (UACC-62): 10.9 µM (inactive)
GI50 (MCF7): 15.3 µM (inactive)
GI50 (SF-295): 35.9 µM (inactive)
GI50 (KM12): 18 µM (inactive)
GI50 (LOX IMVI): 13.7 µM (inactive)
GI50 (Hs-578T): 17.9 µM (inactive)
GI50 (NCI-H522): 10.6 µM (inactive)
GI50 (NCI-H23): 8.55 µM (inactive)
GI50 (SNB-75): 6.08 µM (inactive)
GI50 (CCRF-CEM): 14 µM (inactive)
GI50 (SK-MEL-5): 9.55 µM (inactive)
GI50 (786-0): 16.1 µM (inactive)
GI50 (SF-268): 18.3 µM (inactive)
GI50 (MDA-MB-435): 15.5 µM (inactive)
GI50 (Malme-3M): 15.8 µM (inactive)
GI50 (SF-539): 10.4 µM (inactive)
GI50 (U-251): 16.6 µM (inactive)
GI50 (HT-29): 9.33 µM (inactive)
GI50 (OVCAR-3): 16.7 µM (inactive)
GI50 (SNB-19): 24 µM (inactive)
GI50 (A498): 38.5 µM (inactive)
GI50 (SK-OV-3): > 50 µM (inactive)
GI50 (EKVX): 10.4 µM (inactive)
GI50 (TK-10): 19.4 µM (inactive)
GI50 (PC-3): 18.9 µM (inactive)
GI50 (ACHN): 23.5 µM (inactive)
GI50 (HCT-15): 8.39 µM
GI50 (SR): 9.98 µM (inactive)
GI50 (UO-31): 29.6 µM (inactive)
GI50 (HL-60): 12.6 µM (inactive)

COc1cc(=O)n2c3ccccc3n(C)c2c1C#N
GI50 (K562): > 100 µM (inactive)
GI50 (A549): > 100 µM (inactive)
GI50 (RPMI-8226): > 100 µM (inactive)
GI50 (SK-MEL-2): > 100 µM (inactive)
GI50 (HOP-62): > 100 µM (inactive)
GI50 (MDA-N): > 100 µM (inactive)
GI50 (OVCAR-5): > 100 µM (inactive)
GI50 (OVCAR-8): > 100 µM (inactive)
GI50 (RXF 393): > 100 µM (inactive)
GI50 (SN12C): > 100 µM (inactive)
GI50 (M14): > 100 µM (inactive)
GI50 (SW-620): > 100 µM (inactive)
GI50 (MOLT-4): 45.3 µM (inactive)
GI50 (HCT-116): 43.8 µM (inactive)
GI50 (CAKI-1): > 100 µM (inactive)
GI50 (COLO 205): > 100 µM (inactive)
GI50 (OVCAR-4): > 100 µM (inactive)
GI50 (UACC-257): > 100 µM (inactive)
GI50 (NCI-H226): > 100 µM (inactive)
GI50 (HOP-92): > 100 µM (inactive)
GI50 (MDA-MB-231): > 100 µM (inactive)
GI50 (IGROV-1): > 100 µM (inactive)
GI50 (NCI-H460): > 100 µM (inactive)
GI50 (DU-145): > 100 µM (inactive)
GI50 (UACC-62): > 100 µM (inactive)
GI50 (MCF7): > 100 µM (inactive)
GI50 (SF-295): 22.6 µM (inactive)
GI50 (KM12): > 100 µM (inactive)
GI50 (Hs-578T): > 100 µM (inactive)
GI50 (NCI-H522): > 100 µM (inactive)
GI50 (NCI-H23): > 100 µM (inactive)
GI50 (SNB-75): > 100 µM (inactive)
GI50 (CCRF-CEM): > 100 µM (inactive)
GI50 (SK-MEL-5): > 100 µM (inactive)
GI50 (786-0): > 100 µM (inactive)
GI50 (SF-268): > 100 µM (inactive)
GI50 (MDA-MB-435): > 100 µM (inactive)
GI50 (Malme-3M): > 100 µM (inactive)
GI50 (SF-539): > 100 µM (inactive)
GI50 (U-251): > 100 µM (inactive)
GI50 (HT-29): 74.3 µM (inactive)
GI50 (NCI/ADR-RES): > 100 µM (inactive)
GI50 (OVCAR-3): > 100 µM (inactive)
GI50 (SNB-19): > 100 µM (inactive)
GI50 (A498): > 100 µM (inactive)
GI50 (HCC 2998): > 100 µM (inactive)
GI50 (SK-OV-3): > 100 µM (inactive)
GI50 (EKVX): > 100 µM (inactive)
GI50 (TK-10): > 100 µM (inactive)
GI50 (PC-3): > 100 µM (inactive)
GI50 (ACHN): 76.9 µM (inactive)
GI50 (HCT-15): > 100 µM
GI50 (SR): > 100 µM (inactive)
GI50 (UO-31): > 100 µM (inactive)
GI50 (BT-549): > 100 µM (inactive)
GI50 (HL-60): > 100 µM (inactive)
